According to the NIST ThermoML archive (doi:10.1016/j.jct.2014.05.003):
Numbers after ± are expanded uncertainties.

Columns and labels:
[1] = wn = mass fraction of the nth substance listed; settings: 298.15 K, 100 kPa, Liquid, Vibrating tube method
[2] = relative permittivity at zero frequency (dimensionless); wn = mass fraction of the nth substance listed; settings: 298.15 K, 100 kPa, Liquid, Coaxial cylinder capacitor

mass density ([1]; w1 = 0.1) [kg/m3]	mass density ([1]; w1 = 0.2) [kg/m3]	mass density ([1]; w1 = 0.3) [kg/m3]	relative permittivity at zero frequency ([2]; w1 = 0.1)	relative permittivity at zero frequency ([2]; w1 = 0.2)	relative permittivity at zero frequency ([2]; w1 = 0.3)	Structure (SMILES)
995.7 ± 1	996.2 ± 1	997.3 ± 1				CC(=O)N(C)C [N,N-dimethylethanamide] + O
996.3 ± 1	996.4 ± 1	996.9 ± 1	76.8 ± 0.2	74.6 ± 0.2	72.2 ± 0.2	CN(C)C=O [dimethylformamide] + O
